Test in all cases: DTP human tumour cell line panel, 48 h
For assay [1], the system named is SW-620.
Assay [2] has as its system SF-268.
The subject of assay [3] is HOP-92.
For assay [4], the system named is SK-MEL-2.
Assay [5] concerns NCI-H23.
Assay [6] has as its system HOP-62.
Assay [7] relates to OVCAR-4.
The test system of assay [8] is COLO 205.
Assay [9] concerns IGROV-1.
Assay [10] deals with TK-10.
Assay [11] has as its system CAKI-1.
The test system of assay [12] is NCI-H226.
The subject of assay [13] is NCI-H460.
In assay [14] the test system is A549.
Assay [15] deals with SR.
For assay [16], the system named is EKVX.
Assay [17] has as its system NCI/ADR-RES.
Assay [18] concerns RXF 393.
Assay [19] deals with HT-29.
Assay [20] relates to T47D.

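Cells were grown in 96-well plates and exposed to each compound for 48 hours at five concentrations; endpoints were interpolated linearly between bracketing concentrations, or set to the highest concentration if not reached. Abbreviation: GI50, concentration required for 50% inhibition of growth.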 Active and inactive are the calls of the source. No stated cut-off is given here; in the data, active = GI50 up to about 1.1 µM and inactive = higher.

As for `COC(=O)[C@H]1C=NN[C@@H]1C(=O)N1[C@H]2CC3CC[C@@]2(CS1(=O)=O)C3(C)C`, the GI50 in [1], in assay [2], in [3], in assay [4], in assay [5] and in assay [6] was > 100 µM (inactive) in each case. Besides, the GI50 in assay [7], in [8], in [9], in [10], in assay [11] and in assay [12] was > 100 µM (inactive) in each case. The GI50 in assay [13], in [14], in assay [15], in [16] and in assay [17] was > 100 µM (inactive) each time.
For the compound `CC1=C(O)C(=O)[C@@H]2O[C@@H]2C1=O`, the GI50 (usually the concentration giving 50% growth inhibition) in assay [18] was 2.84 µM (inactive); in assay [1], 3.65 µM (inactive); in assay [2] it was 14.2 µM (inactive); in assay [3] it was 5.57 µM (inactive); in [4], 16 µM (inactive); in assay [5] it was 12.7 µM (inactive). The GI50 is 35.3 µM (inactive) in assay [6]; 14.6 µM (inactive) in assay [7]; 4.72 µM (inactive) in assay [8]; 20.1 µM (inactive) in assay [9]; 5.69 µM (inactive) in assay [11]; 14.5 µM (inactive) in assay [12]. Further, the GI50 in assay [19] is 12.1 µM (inactive); in [13], 19 µM (inactive); in assay [14], 27.3 µM (inactive); in [16] it was 14.7 µM (inactive); in assay [17], 10.7 µM (inactive).
`COc1ccc(N[S+]([O-])C2CCCCC2)cc1` (stereo not given): the GI50 was > 100 µM (inactive) in [18]; > 100 µM (inactive) in [1]; > 100 µM (inactive) in assay [2]; > 100 µM (inactive) in [5]; 91.8 µM (inactive) in assay [6]; > 100 µM (inactive) in assay [8]. Further, the GI50 in [9], in [10], in [11], in [12], in assay [19] and in [13] was > 100 µM (inactive) each time. In addition, the GI50 in assay [14], in [15], in assay [16] and in [17] was > 100 µM (inactive) throughout.
Take `O=C(O)c1c(CC(Cc2ccc3c(c2)CCC3)C(=O)O)ccc2c1CCC2` (stereo not given): the GI50 in assay [1], in assay [3], in assay [4], in [5], in assay [6] and in [7] was > 100 µM (inactive) throughout. Moreover, the GI50 in [8], in assay [9], in assay [10], in assay [11], in assay [12] and in assay [19] was > 100 µM (inactive) in each case. Besides, the GI50 in assay [13], in assay [14], in [15], in assay [16] and in assay [17] was > 100 µM (inactive) throughout.
As to `C/C(=C1/N=C(c2ccccc2)OC1=O)c1ccccc1`, the GI50 in assay [20] is > 100 µM (inactive); in assay [1], 57.5 µM (inactive); in assay [2], > 100 µM (inactive); in assay [3] it was > 100 µM (inactive); in assay [4], > 100 µM (inactive); in [5], > 100 µM (inactive). Besides, the GI50 is > 100 µM (inactive) in [6]; > 100 µM (inactive) in assay [7]; > 100 µM (inactive) in [8]; 68.2 µM (inactive) in [9]; 87.3 µM (inactive) in assay [10]; > 100 µM (inactive) in assay [11]. Further, the GI50 in assay [12] is > 100 µM (inactive); in assay [19] it was > 100 µM (inactive); in assay [13] it was > 100 µM (inactive); in assay [14] it was > 100 µM (inactive); in assay [15] it was 39.5 µM (inactive); in [16], > 100 µM (inactive).
Turning to `CCC(COC(=O)CC[C@@H](NC(=O)C(C)NC(=O)C(C)OC1C(O)C(CO)OC(OCc2ccccc2)C1NC(C)=O)C(N)=O)NC1c2ccccc2Nc2cccc([N+](=O)[O-])c21` (stereo not given in full), the GI50 in assay [18] is 37.4 µM (inactive); in assay [1], > 100 µM (inactive); in assay [2], > 100 µM (inactive); in [3], > 100 µM (inactive); in assay [4] it was > 100 µM (inactive); in assay [5] it was > 100 µM (inactive). Also, the GI50 in assay [6], in [7], in assay [8], in assay [9], in assay [10] and in assay [11] was > 100 µM (inactive) throughout. The GI50 was > 100 µM (inactive) in assay [12]; > 100 µM (inactive) in [19]; 54 µM (inactive) in [13]; > 100 µM (inactive) in assay [14]; > 100 µM (inactive) in assay [15]; > 100 µM (inactive) in assay [16].
As to `COc1cc2c(c3nc4ccccc4nc13)-c1ccc(SC)c(=O)cc1[C@@H](NC(C)=O)CC2`, the GI50 is > 100 µM (inactive) in assay [18]; 0.0752 µM (active) in assay [1]; 0.144 µM (active) in assay [2]; 0.149 µM (active) in assay [3]; 0.0247 µM (active) in assay [5]; 0.405 µM (active) in assay [6]. In addition, the GI50 is 0.0562 µM (active) in [7]; 0.0262 µM (active) in assay [8]; 0.0267 µM (active) in assay [9]; 1.83 µM (inactive) in assay [11]; 0.135 µM (active) in [12]; 0.0364 µM (active) in [19]. Moreover, the GI50 in assay [13] was 0.0893 µM (active); in assay [14], 0.377 µM (active); in [15], 0.0158 µM (active); in assay [16] it was 0.0525 µM (active); in [17] it was 6.9 µM (inactive).
For the compound `O=P1(Oc2ccc(Cl)cc2Cl)Oc2cc3ccccc3cc2O1`, the GI50 in [18] was > 58.9 µM (inactive); in assay [1], 70.1 µM (inactive); in [2] it was > 100 µM (inactive); in assay [3] it was 28.5 µM (inactive); in assay [4], 81.1 µM (inactive); in assay [5] it was 43.9 µM (inactive). For the same compound, the GI50 in assay [6] was 71.8 µM (inactive); in assay [7], 76 µM (inactive); in assay [8], 97.9 µM (inactive); in assay [9], 64.7 µM (inactive); in [11], > 71.8 µM (inactive); in assay [12], > 76.6 µM (inactive). Besides, the GI50 in assay [19] was > 72.9 µM (inactive); in assay [13], 49.9 µM (inactive); in assay [14], 66.2 µM (inactive); in assay [16], 33.9 µM (inactive); in assay [17] it was 84.1 µM (inactive).
Take `C=C1CC(OC)(C(O)C(=O)N[C@H]2OCO[C@H]3C2O[C@H](C[C@H](O)COC)C(C)(C)C3OC)O[C@H](C)[C@@H]1C` (stereo not given in full): the GI50 in assay [18], in [1], in assay [2], in assay [5], in assay [6] and in assay [7] was < 0.00773 µM (active) in each case. The GI50 in assay [8], in [9], in assay [11], in [12], in [19] and in assay [13] was < 0.00773 µM (active) each time. The GI50 in assay [14], in [16] and in assay [17] was < 0.00773 µM (active) in each case.
On to `N#CC(OC1OC(COC2OC(CO)C(O)C(O)C2O)C(O)C(O)C1O)c1ccccc1` (stereo not given), for which the GI50 in assay [18], in [1], in [2], in assay [3], in [4] and in [5] was > 225 µM (inactive) in each case. The GI50 in assay [6], in assay [7], in assay [8], in assay [9], in [11] and in [12] was > 225 µM (inactive) each time. Moreover, the GI50 in assay [19], in [13], in assay [14], in [16] and in [17] was > 225 µM (inactive) each time.
Consider `CSCC[C@@H](NC(=O)[C@H](CC(C)C)NC(=O)C(Cc1cnc[nH]1)NC(=O)CNC(=O)[C@@H](NC(=O)[C@H](C)NC(=O)[C@H](Cc1c[nH]c2ccccc12)NC(=O)[C@H](CCC(N)=O)NC(=O)[C@@H](N)CC(N)=O)C(C)C)C(N)=O` (stereo not given in full), for which the GI50 in [18], in assay [1], in [2], in assay [3], in assay [4] and in [5] was > 100 µM (inactive) throughout. Further, the GI50 in [6], in assay [7], in [8], in assay [9], in [12] and in assay [19] was > 100 µM (inactive) in each case. For the same compound, the GI50 in [13], in assay [14], in assay [16] and in assay [17] was > 100 µM (inactive) throughout.

The values above are taken from ChEMBL document CHEMBL1201862, “PubChem BioAssay data set” (2004).
